Measurements reported in patent publication US10017507B2, “Diaza-benzofluoranthrene compounds” (HARBIN PHARMACEUTICAL GROUP CO., LTD. GENERAL …, priority 2015, dated 2018).
pIC50: −log10 of the molar value.

The compounds below were run against T1, PDE1A (Homo sapiens, UniProt P54750) (assay: In vitro detection of phosphodiesterase (PDE): PDE1A enzyme activity by fluorescence polarization immunoassay). Conditions: human-derived enzyme, cAMP or cGMP substrate; read-out: IC50s for PDE1.
T1 construct: purchased SignalChem
Type: biochemical
Protocol: Test 1: In Vitro Detection of Phosphodiesterase (PDE)
the enzyme activity of PDE1A was determined by detecting the production of AMP/GMP by fluorescence polarization immunoassay, wherein AlexaFluor 633 labeled AMP/GMP was used to replace AMP/GMP to bind with the antibody.
Reaction buffer: 10 mM Tris-HCl, pH 7.5, 5 mM magnesium chloride, 0.01% Brij 35, 1 mM DTT and 1% DMSO;
Enzyme substrate: […] cAMP or cGMP (Ca^2+-calmodulin acts as a cofactor of PDE1A)
Detection reagent: Transcreener® AMP2/GMP2 antibody; AMP2/GMP2 AlexaFluor 633 tracer.
Experimental Procedure and Method:
1. Human-derived enzyme (commercially available from SignalChem) to be tested and substrate were diluted with freshly prepared reaction buffer;
2. The enzyme solution (with a concentration of 3 pM) was added to the holes of the microplates;
3. A series of solutions of the compounds in 100% DMSO (with the desired concentrations) were added to the holes containing the enzyme solution by Echo550, and then the microplates were incubated for 10 minutes at room temperature;
4. The substrate solution was added to the holes containing the enzyme and compounds to start the reaction;
5. The microplates were incubated for 1 hour under room temperature and vibration;
6. The detection mixture (tracer and antibody in stop buffer) was added to stop the enzyme reaction, and the microplates were incubated for 90 minutes under vibration;
7. The equipment EnVision (PerkinElmer), Cy5 FP Ex FP 620, Em S-pol 688/P-pol 688, FP mirror D658fp/D688 was used to detect the reaction mixture, and Ex/Em 620/688 was used to detect the fluorescence polarization.
In the Excel table, the enzyme activity corresponding to the FP signal was found on the AMP/GMP standard curve by reference to the DMSO negative control, and then was converted to product concentration (nM). GraphPad Prism was used to analyze and calculate the IC50 values.

Row | pIC50 | Compound
1 | < 4.00 | CC[C@@]12C=C(c3noc(C4CCN(C(=O)OC(C)(C)C)CC4)n3)n3c4c(c5ccccc53)CCN(CCC1)[C@H]42 [Example 26, Tert-butyl-4-(3-((4^1S,13aS)-13a-ethyl-2,3,4^1,5,6,13a-hexahydro-1H-indolo[3,2,1-de]pyrido[3,2,1-ij][1,5]naphthyridin-12-yl)-1,2,4-oxadiazol-5-yl)piperidine-1-carboxylate]
2 | ≥ 6.00 | CC[C@@]12C=C(c3nc(C)c(OC)o3)n3c4c(c5ccccc53)CCN(CCC1)[C@H]42 [Example 41, 2-((4^1S,13aS)-13a-ethyl-2,3,4^1,5,6,13a-hexahydro-1H-indolo[3,2,1-de]pyrido[3,2,1-ij][1,5]naphthyridin-12-yl)-5-methoxy-4-methyloxazole]
3 | ≥ 6.00 | CC[C@@]12C=C(c3nc(C)c(CO)o3)n3c4c(c5ccccc53)CCN(CCC1)[C@H]42 [Example 61, (2-((4^1S,13aS)-13a-ethyl-2,3,4^1,5,6,13a-hexahydro-1H-indolo[3,2,1-de]pyrido[3,2,1-ij][1,5]naphthyridin-12-yl)-4-methyloxazol-5-yl)methanol]
4 | 4.70 to 6.00 | CC[C@@]12C=C(c3noc(C)n3)n3c4c(c5ccccc53)CCN(CCC1)[C@H]42 [Example 20, 3-((4^1S,13aS)-13a-ethyl-2,3,4^1,5,6,13a-hexahydro-1H-indolo[3,2,1-de]pyrido[3,2,1-ij][1,5]naphthyridin-12-yl)-5-methyl-1,2,4-oxadiazole]
5 | 4.70 to 6.00 | CC[C@@]12C=C(c3nc(C)c(C(N)=O)o3)n3c4c(c5ccccc53)CCN(CCC1)[C@H]42 [Example 62, 2-((4^1S,13aS)-13a-ethyl-2,3,4^1,5,6,13a-hexahydro-1H-indolo[3,2,1-de]pyrido[3,2,1-ij][1,5]naphthyridin-12-yl)-4-methyloxazole-5-carboxamide]
6 | 4.70 to 6.00 | CC[C@@]12C=C(c3nc(C)c(C)o3)n3c4c(c5ccc(S(=O)(=O)N(C)C)cc53)CCN(CCC1)[C@H]42 [Example 69, (4^1S,13aS)-12-(4,5-dimethyloxazol-2-yl)-13a-ethyl-N,N-dimethyl-2,3,4^1,5,6,13a-hexahydro-1H-indolo[3,2,1-de]pyrido[3,2,1-ij][1,5]naphthyridin-9-sulfonamide]
7 | 4.00 to 4.70 | CC[C@@]12C=C(c3cnco3)n3c4c(c5ccccc53)CCN(CCC1)[C@H]42 [Example 4, 5-((4^1S,13aS)-13a-ethyl-2,3,4^1,5,6,13a-hexahydro-1H-indolo[3,2,1-de]pyrido[3,2,1-ij][1,5]naphthyridin-12-yl)oxazole]
8 | 4.70 to 6.00 | CC[C@@]12C=C(c3cn4ccccc4n3)n3c4c(c5ccccc53)CCN(CCC1)[C@H]42 [Example 42, (4^1S,13aS)-13a-ethyl-12-(imidazo[1,2-a]pyridin-2-yl)-2,3,4^1,5,6,13a-hexahydro-1H-indolo[3,2,1-de]pyrido[3,2,1-ij][1,5]naphthyridine]
9 | 4.00 to 4.70 | (4^1S,13aS)-13a-ethyl-N-(3-methoxylpropyl)-12-(3-methyl-1,2,4-oxadiazol-5-yl)-2,3,4^1,5,6,13a-hexahydro-1H-indolo[3,2,1-de]pyrido[3,2,1-ij][1,5]naphthyridin-9-sulfonamide [Example 78]
10 | 4.70 to 6.00 | (4^1S,13aS)-13a-ethyl-N-methyl-12-(3-methyl-1,2,4-oxadiazol-5-yl)-2,3,4^1,5,6,13a-hexahydro-1H-indolo[3,2,1-de]pyrido[3,2,1-ij][1,5]naphthyridin-8-sulfonamide [Example 79]
11 | 4.00 to 4.70 | (4^1S,13aS)-13a-ethyl-N-(3-methoxylpropyl)-12-(3-methyl-1,2,4-oxadiazol-5-yl)-2,3,4^1,5,6,13a-hexahydro-1H-indolo[3,2,1-de]pyrido[3,2,1-ij][1,5]naphthyridin-8-sulfonamide [Example 81]
12 | < 4.00 | CC[C@@]12C=C(c3noc(C(F)(F)F)n3)n3c4c(c5ccccc53)CCN(CCC1)[C@H]42 [Example 21, 3-((4^1S,13aS)-13a-ethyl-2,3,4^1,5,6,13a-hexahydro-1H-indolo[3,2,1-de]pyrido[3,2,1-ij][1,5]naphthyridin-12-yl)-5-trifluoromethyl-1,2,4-oxadiazole]
13 | 4.70 to 6.00 | CC[C@@]12C=C(c3nnc(C)o3)n3c4c(c5ccccc53)CCN(CCC1)[C@H]42 [Example 17, 2-((4^1S,13aS)-13a-ethyl-2,3,4^1,5,6,13a-hexahydro-1H-indolo[3,2,1-de]pyrido[3,2,1-ij][1,5]naphthyridin-12-yl)-5-methyl-1,3,4-oxadiazole]
14 | < 4.00 | CC[C@@]12C=C(c3noc(-c4ccc(F)cc4)n3)n3c4c(c5ccccc53)CCN(CCC1)[C@H]42 [Example 27, 3-((4^1S,13aS)-13a-ethyl-2,3,4^1,5,6,13a-hexahydro-1H-indolo[3,2,1-de]pyrido[3,2,1-ij][1,5]naphthyridin-12-yl)-5-(4-fluorophenyl)-1,2,4-oxadiazole]
15 | ≥ 6.00 | CCc1nc(C2=C[C@]3(CC)CCCN4CCc5c(n2c2ccccc52)[C@@H]43)oc1C [Example 56, 4-ethyl-2-((4^1S,13aS)-13a-ethyl-2,3,4^1,5,6,13a-hexahydro-1H-indolo[3,2,1-de]pyrido[3,2,1-ij][1,5]naphthyridin-12-yl)-5-methyloxazole]
16 | 4.70 to 6.00 | CC[C@@]12C=C(c3nc(C)co3)n3c4c(c5ccccc53)CCN(CCC1)[C@H]42 [Example 50, 2-((4^1S,13aS)-13a-ethyl-2,3,4^1,5,6,13a-hexahydro-1H-indolo[3,2,1-de]pyrido[3,2,1-ij][1,5]naphthyridin-12-yl)-4-methyloxazole]
17 | 4.70 to 6.00 | CC[C@@]12C=C(c3noc(C(C)(C)O)n3)n3c4c(c5ccccc53)CCN(CCC1)[C@H]42 [Example 25, 2-(3-((4^1S,13aS)-13a-ethyl-2,3,4^1,5,6,13a-hexahydro-1H-indolo[3,2,1-de]pyrido[3,2,1-ij][1,5]naphthyridin-12-yl)-1,2,4-oxadiazol-5-yl)propan-2-ol]
18 | 4.70 to 6.00 | CCC/C(=N\OC)C1=C[C@]2(CC)CCCN3CCc4c(n1c1ccccc41)[C@@H]32 [Example 48, 1-((4^1S,13aS)-13a-ethyl-2,3,4^1,5,6,13a-hexahydro-1H-indolo[3,2,1-de]pyrido[3,2,1-ij][1,5]naphthyridin-12-yl)butan-1-one-O-methyl oxime]
19 | 4.00 to 4.70 | CC[C@@]12C=C(c3nc(C)c(C)o3)n3c4c(c5cc(S(=O)(=O)NCCCOC)ccc53)CCN(CCC1)[C@H]42 [Example 72, (4^1S,13aS)-12-(4,5-dimethyloxazol-2-yl)-13a-ethyl-N-(3-methoxylpropyl)-2,3,4^1,5,6,13a-hexahydro-1H-indolo[3,2,1-de]pyrido[3,2,1-ij][1,5]naphthyridin-9-sulfonamide]
20 | 4.00 to 4.70 | CC[C@@]12C=C(c3noc(-c4ccncc4)n3)n3c4c(c5ccccc53)CCN(CCC1)[C@H]42 [Example 24, 3-((4^1S,13aS)-13a-ethyl-2,3,4^1,5,6,13a-hexahydro-1H-indolo[3,2,1-de]pyrido[3,2,1-ij][1,5]naphthyridin-12-yl)-5-(pyridin-4-yl)-1,2,4-oxadiazole]
21 | < 4.00 | CC[C@@]12C=C(c3noc(-c4cccs4)n3)n3c4c(c5ccccc53)CCN(CCC1)[C@H]42 [Example 28, 3-((4^1S,13aS)-13a-ethyl-2,3,4^1,5,6,13a-hexahydro-1H-indolo[3,2,1-de]pyrido[3,2,1-ij][1,5]naphthyridin-12-yl)-5-(thiophen-2-yl)-1,2,4-oxadiazole]
22 | 4.00 to 4.70 | CC[C@@]12C=C(/C=C/C(N)=O)n3c4c(c5ccccc53)CCN(CCC1)[C@H]42 [Example 7, (E)-3-((4^1S,13aS)-13a-ethyl-2,3,4^1,5,6,13a-hexahydro-1H-indolo[3,2,1-de]pyrido[3,2,1-ij][1,5]naphthyridin-12-yl)acrylamide]
23 | < 4.00 | CC[C@@]12C=C(c3ncc[nH]3)n3c4c(c5ccccc53)CCN(CCC1)[C@H]42 [Example 3, (4^1S,13aS)-13a-ethyl-12-(1H-imidazol-2-yl)-2,3,4^1,5,6,13a-hexahydro-1H-indolo[3,2,1-de]pyrido[3,2,1-ij][1,5]naphthyridine]

Row | Compound | pIC50
24 | CC[C@@]12C=C(/C(C#N)=N/OC)n3c4c(c5ccccc53)CCN(CCC1)[C@H]42 [Example 2, (4^1S,13aS,Z)-13a-ethyl-N-methoxyl-2,3,4^1,5,6,13a-hexahydro-1H-indolo[3,2,1-de]pyrido[3,2,1-ij][1,5]naphthyridine-12-carbimidoyl cyanide] | 4.70 to 6.00
25 | (4^1S,13aS)-13a-ethyl-12-(1-methyl-1H-pyrazol-3-yl)-2,3,4^1,5,6,13a-hexahydro-1H-indolo[3,2,1-de]pyrido[3,2,1-ij][1,5]naphthyridine, and (4^1S,13aS)-13a-ethyl-12-(1-methyl-1H-pyrazol-5-yl)-2,3,4^1,5,6,13a-hexahydro-1H-indolo[3,2,1-de]pyrido[3,2,1-ij][1,5]naphthyridine [Example 46] | 4.00 to 4.70
